This is an account of results in patent US9533071B2, “Wound healing compositions including cyanoacrylate monomers and phenytoin” (Adhezion Biomedical, LLC, priority 2010, dated 2017).

In data set [1] the test system is surgical wounds of periodontal patients. As to conditions: topical; cited from earlier work.
Another data set deals with bacterial load of wounds. As to conditions: clinical studies; cited from earlier work.
The nature of data set [2]: Incorporation (miscibility) of phenytoin into cyanoacrylate monomers. The data set is classed as physicochemical. How it is done:
According to the present invention, an effective amount of wound healing promoter, is incorporated into the pre-stabilized liquid monomeric cyanoacrylate adhesive compositions to form a homogeneous liquid adhesive product. […] After continuous stirring at this elevated temperature, the mixture of cyanaocrylate monomers and wound healing accelerator becomes a homogeneous solution within about 1 to 2 hours. Standard mixing equipment and techniques are suitable. The 5,5-[…], including phenytoin are readily available from major chemical distributors. […] Table 1 below summarizes the results of incorporating phenytoin into different cyanoacrylate monomer solutions at the elevated temperatures. […] At the elevated temperatures, phenytoin is soluble in both 2-octyl cyanoacrylate (OCA) and n-butyl cyanoacrylate (BCA). It is also interesting to note that phenytoin is more soluble in shorter alkyl chain cyanoacrylate (BCA) than in longer alkyl chain cyanoacrylate (OCA).

Regarding `O=C1NC(=O)C(c2ccccc2)(c2ccccc2)N1` [phenytoin, 5,5-diphenylhydantoin], in data set [1], the Inflammation and pain result is “reduced inflammation and pain”; the Wound healing entry is on record as “accelerated wound healing”. For the same compound, the “Bacterial load of wounds” value with bacterial load of wounds is recorded as “decrease the bacterial load of wounds”. Besides, in data set [2] (elevated temperatures), the “Solubility in 2-octyl cyanoacrylate (OCA)” value was “soluble” and the “Solubility in n-butyl cyanoacrylate (BCA)” value is on record as “soluble”. In addition, the “Solubility in 2-octyl cyanoacrylate (OCA) monomer” value in data set [2] (room temperature) is “not soluble”. The “Solubility in BCA compared with OCA” value in data set [2] (shorter vs longer alkyl chain cyanoacrylate) is given as “more soluble”.
